Experimental data: ChEMBL document CHEMBL4507329, “Data for DCP probe BTZO-1” (2021)

Columns and labels:
[1] = molecular target: Protein kinase C delta type (Homo sapiens) (UniProt Q05655); conditions: Compound concentration 1000.0 nM
[2] = molecular target: Serine/threonine-protein kinase VRK2 (Homo sapiens) (UniProt Q86Y07); conditions: Compound concentration 1000.0 nM
[3] = molecular target: Mitogen-activated protein kinase 3 (Homo sapiens) (UniProt P27361); conditions: Compound concentration 1000.0 nM
[4] = molecular target: cAMP-dependent protein kinase catalytic subunit beta (Homo sapiens) (UniProt P22694); conditions: Compound concentration 1000.0 nM
[5] = molecular target: Calcium/calmodulin-dependent protein kinase type 1 (Homo sapiens) (UniProt Q14012); conditions: Compound concentration 1000.0 nM
[6] = molecular target: Serine/threonine-protein kinase RIO3 (Homo sapiens) (UniProt O14730); conditions: Compound concentration 1000.0 nM
[7] = test system: Fibroblast growth factor receptor 3 (Homo sapiens), P22607 [G697C]; conditions: Compound concentration 1000.0 nM
[8] = molecular target: Casein kinase I isoform alpha (Homo sapiens) (UniProt P48729); conditions: Compound concentration 1000.0 nM
[9] = test system: Hepatocyte growth factor receptor (Homo sapiens), P08581 [Y1235D]; conditions: Compound concentration 1000.0 nM
[10] = molecular target: Myosin light chain kinase 2, skeletal/cardiac muscle (Homo sapiens) (UniProt Q9H1R3); conditions: Compound concentration 1000.0 nM
[11] = molecular target: Homeodomain-interacting protein kinase 4 (Homo sapiens) (UniProt Q8NE63); conditions: Compound concentration 1000.0 nM
[12] = molecular target: 5-hydroxytryptamine receptor 2B (Homo sapiens) (UniProt P41595); conditions: Compound concentration 10.0 uM
[13] = molecular target: Tyrosine-protein kinase receptor Tie-1 (Homo sapiens) (UniProt P35590); conditions: Compound concentration 1000.0 nM
[14] = molecular target: Serine/threonine-protein kinase ULK2 (Homo sapiens) (UniProt Q8IYT8); conditions: Compound concentration 1000.0 nM
[15] = molecular target: Serine/threonine-protein kinase 38-like (Homo sapiens) (UniProt Q9Y2H1); conditions: Compound concentration 1000.0 nM
[16] = molecular target: Activin receptor type-2A (Homo sapiens) (UniProt P27037); conditions: Compound concentration 1000.0 nM
[17] = molecular target: Phosphatidylinositol 5-phosphate 4-kinase type-2 beta (Homo sapiens) (UniProt P78356); conditions: Compound concentration 1000.0 nM
[18] = molecular target: Macrophage colony-stimulating factor 1 receptor (Homo sapiens) (UniProt P07333); conditions: Compound concentration 1000.0 nM
[19] = molecular target: Hepatocyte growth factor receptor (Homo sapiens) (UniProt P08581); conditions: Compound concentration 1000.0 nM
[20] = molecular target: Proto-oncogene tyrosine-protein kinase ROS (Homo sapiens) (UniProt P08922); conditions: Compound concentration 1000.0 nM
[21] = molecular target: MAP/microtubule affinity-regulating kinase 3 (Homo sapiens) (UniProt P27448); conditions: Compound concentration 1000.0 nM
[22] = test system: Tyrosine-protein kinase ABL1 (Homo sapiens), P00519 [E255K]; conditions: Compound concentration 1000.0 nM
[23] = molecular target: Peripheral plasma membrane protein CASK (Homo sapiens) (UniProt O14936); conditions: Compound concentration 1000.0 nM
[24] = molecular target: Serine/threonine-protein kinase ULK3 (Homo sapiens) (UniProt Q6PHR2); conditions: Compound concentration 1000.0 nM
[25] = molecular target: Epidermal growth factor receptor (Homo sapiens) (UniProt P00533); conditions: Compound concentration 1000.0 nM
[26] = molecular target: Tyrosine-protein kinase Fyn (Homo sapiens) (UniProt P06241); conditions: Compound concentration 1000.0 nM
[27] = molecular target: Tyrosine-protein kinase Yes (Homo sapiens) (UniProt P07947); conditions: Compound concentration 1000.0 nM
[28] = molecular target: Serine/threonine-protein kinase TBK1 (Homo sapiens) (UniProt Q9UHD2); conditions: Compound concentration 1000.0 nM
[29] = molecular target: Serine/threonine-protein kinase OSR1 (Homo sapiens) (UniProt O95747); conditions: Compound concentration 1000.0 nM
[30] = test system: Epidermal growth factor receptor (Homo sapiens), P00533 [G719S]; conditions: Compound concentration 1000.0 nM
[31] = molecular target: Serine/threonine-protein kinase DCLK2 (Homo sapiens) (UniProt Q8N568); conditions: Compound concentration 1000.0 nM
[32] = molecular target: Calcium/calmodulin-dependent protein kinase type II subunit delta (Homo sapiens) (UniProt Q13557); conditions: Compound concentration 1000.0 nM
[33] = molecular target: Dual specificity mitogen-activated protein kinase kinase 5 (Homo sapiens) (UniProt Q13163); conditions: Compound concentration 1000.0 nM
[34] = molecular target: Serine/threonine-protein kinase 33 (Homo sapiens) (UniProt Q9BYT3); conditions: Compound concentration 1000.0 nM
[35] = molecular target: cAMP-dependent protein kinase catalytic subunit alpha (Homo sapiens) (UniProt P17612); conditions: Compound concentration 1000.0 nM
[36] = molecular target: MAP kinase-interacting serine/threonine-protein kinase 2 (Homo sapiens) (UniProt Q9HBH9); conditions: Compound concentration 1000.0 nM
[37] = molecular target: Alpha-2C adrenergic receptor (Homo sapiens) (UniProt P18825); conditions: Compound concentration 10.0 uM
[38] = molecular target: Cyclin-dependent kinase 11B (Homo sapiens) (UniProt P21127); conditions: Compound concentration 1000.0 nM
[39] = molecular target: Serine/threonine-protein kinase LATS2 (Homo sapiens) (UniProt Q9NRM7); conditions: Compound concentration 1000.0 nM
[40] = molecular target: Serine/threonine-protein kinase PLK4 (Homo sapiens) (UniProt O00444); conditions: Compound concentration 1000.0 nM
[41] = molecular target: Mast/stem cell growth factor receptor Kit (Homo sapiens) (UniProt P10721); conditions: Compound concentration 1000.0 nM
[42] = molecular target: Phosphorylase b kinase gamma catalytic chain, skeletal muscle/heart isoform (Homo sapiens) (UniProt Q16816); conditions: Compound concentration 1000.0 nM
[43] = molecular target: Cyclin-dependent kinase 4 (Homo sapiens) (UniProt P11802); conditions: Compound concentration 1000.0 nM
[44] = molecular target: Phosphatidylinositol 4-phosphate 5-kinase type-1 alpha (Homo sapiens) (UniProt Q99755); conditions: Compound concentration 1000.0 nM
[45] = test system: Epidermal growth factor receptor (Homo sapiens), P00533 [UNDEFINED MUTATION]; conditions: Compound concentration 1000.0 nM

Chain of Serine/threonine-protein kinase PLK4 (Homo sapiens) (O00444 whole entry): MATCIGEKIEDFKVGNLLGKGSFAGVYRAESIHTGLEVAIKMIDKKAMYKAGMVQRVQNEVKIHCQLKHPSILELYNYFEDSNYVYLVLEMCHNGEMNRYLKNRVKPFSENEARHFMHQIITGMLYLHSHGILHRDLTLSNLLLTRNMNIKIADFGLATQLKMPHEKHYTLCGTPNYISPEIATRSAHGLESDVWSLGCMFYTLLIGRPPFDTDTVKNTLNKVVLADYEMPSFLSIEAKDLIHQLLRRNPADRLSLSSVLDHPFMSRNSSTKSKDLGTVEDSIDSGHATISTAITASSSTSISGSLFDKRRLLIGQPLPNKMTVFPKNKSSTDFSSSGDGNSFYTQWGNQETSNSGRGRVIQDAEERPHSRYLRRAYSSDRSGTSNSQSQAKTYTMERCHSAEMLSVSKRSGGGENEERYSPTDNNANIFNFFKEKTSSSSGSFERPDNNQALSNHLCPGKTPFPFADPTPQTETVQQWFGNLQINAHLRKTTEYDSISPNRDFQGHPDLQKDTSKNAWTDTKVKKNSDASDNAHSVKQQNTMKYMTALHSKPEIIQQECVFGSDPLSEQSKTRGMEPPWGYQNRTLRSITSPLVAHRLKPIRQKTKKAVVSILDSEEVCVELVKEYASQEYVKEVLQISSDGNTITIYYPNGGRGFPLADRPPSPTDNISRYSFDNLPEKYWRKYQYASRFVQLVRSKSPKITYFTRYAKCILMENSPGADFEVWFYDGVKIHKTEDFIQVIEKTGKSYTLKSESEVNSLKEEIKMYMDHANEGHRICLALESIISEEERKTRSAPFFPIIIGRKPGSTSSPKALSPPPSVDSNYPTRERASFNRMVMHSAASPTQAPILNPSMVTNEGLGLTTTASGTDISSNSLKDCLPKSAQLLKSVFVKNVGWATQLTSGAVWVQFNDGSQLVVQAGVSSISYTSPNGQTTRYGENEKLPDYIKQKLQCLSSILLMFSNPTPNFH
Chain of Dual specificity mitogen-activated protein kinase kinase 5 (Homo sapiens) (Q13163 whole entry): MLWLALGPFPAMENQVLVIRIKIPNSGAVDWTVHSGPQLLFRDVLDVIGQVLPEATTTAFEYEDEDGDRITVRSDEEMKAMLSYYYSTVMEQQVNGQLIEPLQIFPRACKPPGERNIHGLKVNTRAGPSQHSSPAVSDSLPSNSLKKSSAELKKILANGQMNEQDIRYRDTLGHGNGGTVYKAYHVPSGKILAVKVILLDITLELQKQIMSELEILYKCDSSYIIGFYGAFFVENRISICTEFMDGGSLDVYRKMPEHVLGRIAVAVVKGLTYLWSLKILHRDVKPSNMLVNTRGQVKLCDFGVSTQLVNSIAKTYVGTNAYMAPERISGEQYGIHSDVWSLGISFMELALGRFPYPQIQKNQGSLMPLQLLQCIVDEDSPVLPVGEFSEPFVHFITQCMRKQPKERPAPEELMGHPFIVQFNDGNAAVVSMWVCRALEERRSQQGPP
Chain of Myosin light chain kinase 2, skeletal/cardiac muscle (Homo sapiens) (Q9H1R3 whole entry): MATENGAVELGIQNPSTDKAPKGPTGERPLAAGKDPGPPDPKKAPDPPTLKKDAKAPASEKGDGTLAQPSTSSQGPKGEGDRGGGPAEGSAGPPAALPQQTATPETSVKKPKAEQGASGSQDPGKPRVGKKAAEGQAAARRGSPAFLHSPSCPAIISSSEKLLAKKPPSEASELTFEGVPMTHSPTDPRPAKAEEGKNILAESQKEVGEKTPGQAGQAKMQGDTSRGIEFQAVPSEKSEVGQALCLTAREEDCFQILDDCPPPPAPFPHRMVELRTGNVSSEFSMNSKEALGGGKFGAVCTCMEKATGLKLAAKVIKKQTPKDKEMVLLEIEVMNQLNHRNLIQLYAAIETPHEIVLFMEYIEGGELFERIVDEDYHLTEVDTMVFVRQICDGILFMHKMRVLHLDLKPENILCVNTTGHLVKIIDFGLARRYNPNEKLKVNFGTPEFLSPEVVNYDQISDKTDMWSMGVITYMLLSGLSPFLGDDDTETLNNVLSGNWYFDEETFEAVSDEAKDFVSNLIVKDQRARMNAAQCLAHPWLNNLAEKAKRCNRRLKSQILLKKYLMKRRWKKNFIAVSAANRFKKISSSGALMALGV
Chain of Mitogen-activated protein kinase 3 (Homo sapiens) (P27361 whole entry): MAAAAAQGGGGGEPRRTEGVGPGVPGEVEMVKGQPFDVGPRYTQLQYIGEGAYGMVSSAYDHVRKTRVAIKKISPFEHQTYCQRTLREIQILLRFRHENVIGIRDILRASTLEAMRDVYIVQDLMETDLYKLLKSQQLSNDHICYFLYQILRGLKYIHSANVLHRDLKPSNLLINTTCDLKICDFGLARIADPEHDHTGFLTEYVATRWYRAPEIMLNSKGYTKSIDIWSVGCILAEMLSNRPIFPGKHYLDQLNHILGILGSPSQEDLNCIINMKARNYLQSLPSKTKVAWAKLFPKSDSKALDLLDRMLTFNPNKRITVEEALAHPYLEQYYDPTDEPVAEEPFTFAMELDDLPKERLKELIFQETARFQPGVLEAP
Chain of Tyrosine-protein kinase ABL1 (Homo sapiens), P00519 [E255K] (P00519 whole entry E255K): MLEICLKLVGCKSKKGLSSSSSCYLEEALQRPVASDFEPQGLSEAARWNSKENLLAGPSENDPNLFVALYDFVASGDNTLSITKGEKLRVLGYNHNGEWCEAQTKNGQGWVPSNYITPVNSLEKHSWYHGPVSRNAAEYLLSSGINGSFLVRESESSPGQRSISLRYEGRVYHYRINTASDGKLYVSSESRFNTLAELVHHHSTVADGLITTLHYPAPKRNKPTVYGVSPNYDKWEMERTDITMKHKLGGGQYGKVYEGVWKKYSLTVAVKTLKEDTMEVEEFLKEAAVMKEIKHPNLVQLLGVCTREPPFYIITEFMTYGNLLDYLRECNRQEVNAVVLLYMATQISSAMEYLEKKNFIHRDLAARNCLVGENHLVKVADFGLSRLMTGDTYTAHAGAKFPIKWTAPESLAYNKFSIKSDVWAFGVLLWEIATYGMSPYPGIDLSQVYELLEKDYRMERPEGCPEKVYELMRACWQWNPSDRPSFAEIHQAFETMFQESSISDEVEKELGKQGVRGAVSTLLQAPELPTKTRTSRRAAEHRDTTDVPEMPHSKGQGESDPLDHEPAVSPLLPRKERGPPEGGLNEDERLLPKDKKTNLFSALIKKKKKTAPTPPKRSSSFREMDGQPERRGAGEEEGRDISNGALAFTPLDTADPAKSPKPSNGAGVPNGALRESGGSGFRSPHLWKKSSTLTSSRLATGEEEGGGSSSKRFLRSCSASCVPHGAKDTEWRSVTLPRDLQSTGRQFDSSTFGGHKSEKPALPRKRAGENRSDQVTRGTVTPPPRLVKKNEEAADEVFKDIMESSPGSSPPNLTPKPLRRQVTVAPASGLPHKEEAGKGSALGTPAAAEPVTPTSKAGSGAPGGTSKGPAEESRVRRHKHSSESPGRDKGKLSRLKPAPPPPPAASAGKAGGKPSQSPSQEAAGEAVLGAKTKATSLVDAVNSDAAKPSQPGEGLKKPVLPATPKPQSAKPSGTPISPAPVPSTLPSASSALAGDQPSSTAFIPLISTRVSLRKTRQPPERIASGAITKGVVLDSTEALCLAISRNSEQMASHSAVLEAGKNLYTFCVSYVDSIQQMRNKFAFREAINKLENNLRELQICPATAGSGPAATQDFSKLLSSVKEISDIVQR
Chain of MAP kinase-interacting serine/threonine-protein kinase 2 (Homo sapiens) (Q9HBH9 whole entry, looked up): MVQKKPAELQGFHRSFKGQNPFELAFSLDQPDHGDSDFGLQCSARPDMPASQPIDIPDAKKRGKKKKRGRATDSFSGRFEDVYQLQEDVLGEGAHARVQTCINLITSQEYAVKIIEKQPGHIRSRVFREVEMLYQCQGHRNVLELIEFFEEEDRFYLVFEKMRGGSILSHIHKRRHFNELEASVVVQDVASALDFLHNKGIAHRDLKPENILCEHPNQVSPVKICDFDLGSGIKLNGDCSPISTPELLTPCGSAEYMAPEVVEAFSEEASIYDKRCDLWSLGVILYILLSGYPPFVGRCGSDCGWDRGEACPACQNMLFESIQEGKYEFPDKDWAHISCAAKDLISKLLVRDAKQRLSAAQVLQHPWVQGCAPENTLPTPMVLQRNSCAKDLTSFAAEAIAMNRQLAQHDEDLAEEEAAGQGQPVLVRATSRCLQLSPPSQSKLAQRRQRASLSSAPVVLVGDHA
Chain of Serine/threonine-protein kinase 33 (Homo sapiens) (Q9BYT3 whole entry, looked up): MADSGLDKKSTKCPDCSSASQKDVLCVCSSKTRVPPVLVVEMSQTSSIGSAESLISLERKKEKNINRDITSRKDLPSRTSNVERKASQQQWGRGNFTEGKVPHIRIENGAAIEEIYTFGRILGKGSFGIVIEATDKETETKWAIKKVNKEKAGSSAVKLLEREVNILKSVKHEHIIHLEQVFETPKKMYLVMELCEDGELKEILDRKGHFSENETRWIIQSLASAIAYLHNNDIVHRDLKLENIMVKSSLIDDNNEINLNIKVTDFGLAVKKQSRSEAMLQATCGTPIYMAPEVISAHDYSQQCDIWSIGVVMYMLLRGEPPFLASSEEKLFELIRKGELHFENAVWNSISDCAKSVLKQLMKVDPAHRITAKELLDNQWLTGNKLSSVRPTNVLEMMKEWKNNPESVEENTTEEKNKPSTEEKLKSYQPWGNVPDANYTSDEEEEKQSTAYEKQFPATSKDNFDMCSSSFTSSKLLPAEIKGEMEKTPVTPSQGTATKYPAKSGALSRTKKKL
Chain of Serine/threonine-protein kinase VRK2 (Homo sapiens) (Q86Y07 whole entry): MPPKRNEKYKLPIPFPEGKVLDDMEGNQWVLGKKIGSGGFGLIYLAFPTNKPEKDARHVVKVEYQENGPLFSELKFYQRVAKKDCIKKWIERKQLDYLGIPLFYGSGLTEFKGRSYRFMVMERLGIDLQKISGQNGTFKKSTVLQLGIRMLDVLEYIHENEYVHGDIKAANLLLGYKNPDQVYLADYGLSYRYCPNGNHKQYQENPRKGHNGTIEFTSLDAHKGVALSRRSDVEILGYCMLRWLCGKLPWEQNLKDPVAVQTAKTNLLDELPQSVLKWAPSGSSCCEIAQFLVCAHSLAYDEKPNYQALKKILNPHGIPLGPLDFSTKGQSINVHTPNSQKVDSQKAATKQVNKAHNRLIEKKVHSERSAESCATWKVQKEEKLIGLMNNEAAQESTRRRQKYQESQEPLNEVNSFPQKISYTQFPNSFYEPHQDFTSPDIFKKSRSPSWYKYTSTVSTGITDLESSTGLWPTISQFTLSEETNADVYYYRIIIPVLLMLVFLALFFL

O=c1nc(-c2ccccn2)sc2ccccc12 [BTZO-1]
inactive: residual activity [1] 100% | residual activity [2] 74% | residual activity [3] 80% | residual activity [4] 92% | residual activity [5] 92% | residual activity [6] 99% | residual activity [7] 100% | residual activity [8] 76% | residual activity [9] 100% | residual activity [10] 100% | residual activity [11] 85% | inhibition [12] 34.3% | residual activity [13] 91% | residual activity [14] 100% | residual activity [15] 66% | residual activity [16] 91% | residual activity [17] 100% | residual activity [18] 95% | residual activity [19] 74% | residual activity [20] 100% | residual activity [21] 89% | residual activity [22] 100% | residual activity [23] 84% | residual activity [24] 100% | residual activity [25] 70% | residual activity [26] 100% | residual activity [27] 100% | residual activity [28] 91% | residual activity [29] 100% | residual activity [30] 71% | residual activity [31] 97% | residual activity [32] 90% | residual activity [33] 79% | residual activity [34] 87% | residual activity [35] 91% | residual activity [36] 100% | inhibition [37] -9.43% | residual activity [38] 100% | residual activity [39] 79% | residual activity [40] 80% | residual activity [41] 97% | residual activity [42] 84% | residual activity [43] 100% | residual activity [44] 100% | residual activity [45] 84%

O=C1NC(c2ccccn2)Sc2ccccc21 (stereo not given) [BTZO-4]
inactive: residual activity [1] 71% | residual activity [2] 77% | residual activity [3] 74% | residual activity [4] 97% | residual activity [5] 91% | residual activity [6] 91% | residual activity [7] 100% | residual activity [8] 72% | residual activity [9] 96% | residual activity [10] 100% | residual activity [11] 70% | inhibition [12] -5.37% | residual activity [13] 65% | residual activity [14] 76% | residual activity [15] 58% | residual activity [16] 100% | residual activity [17] 100% | residual activity [18] 91% | residual activity [19] 68% | residual activity [20] 95% | residual activity [21] 95% | residual activity [22] 77% | residual activity [23] 71% | residual activity [24] 100% | residual activity [25] 82% | residual activity [26] 100% | residual activity [27] 100% | residual activity [28] 87% | residual activity [29] 100% | residual activity [30] 82% | residual activity [31] 92% | residual activity [32] 75% | residual activity [33] 87% | residual activity [34] 93% | residual activity [35] 81% | residual activity [36] 100% | inhibition [37] -4.89% | residual activity [38] 100% | residual activity [39] 70% | residual activity [40] 76% | residual activity [41] 88% | residual activity [42] 76% | residual activity [43] 93% | residual activity [44] 100% | residual activity [45] 92%
